Data reported in patent US9801858B2, “Progress-supressing or improving agent for chronic kidney disease” (NIPPON ZOKI PHARMACEUTICAL CO., LTD., priority 2014, dated 2017).
“Also recorded” adds a separate entry of the source. Read-outs that look alike come from different tables or passages of the source.

How the values were obtained:
[1] = system: patients with CKD (rapidly-progressive and slowly-progressive); experiment: new clinical tests: investigational drug orally once daily for 24 weeks, CKD stage 3 or 4; format: in vivo, human; settings: for progress of worsening of the renal function (inclination of regression line to 1/sCr, before vs after): 24 weeks
Text: During such a period, a good idea has occurred that the effect of the present compound is investigated after dividing the patients with CKD into groups where worsening of the renal function is rapid and is not. As a result, the patients with CKD were divided into a group where changes in the reciprocal sCr value (1/sCr) per month before administration of the test drug are 0.01 dL/mg or more and worsening of the renal function is rapidly progressing (hereinafter, that will be referred to as “rapidly progressive CKD patients”) and another group where said changes are less than 0.01 dL/mg (hereinafter, that will be referred to as “slowly progressive CKD patients”) and clinical tests comparing the effect of the present compound were carried out. (Hereinafter, that will be referred to as “new clinical tests”.) Such a yardstick where the changes in the reciprocal sCr value are 0.01 dL/mg or more followed the yardstick adopted in the application of “Kremezin (Registered Trade Mark)” which is the above-mentioned spherical adsorptive carbon preparation. Further, in the new clinical tests, dose of the present compound was increased to some extent so as to find the difference from the results in the old clinical tests. Summary and result of the new clinical tests will be mentioned as follows.
A clinical test for evaluating the efficacy and the safety of the present compound was conducted using the patients where the CKD stage was 3 or 4 as the object. Persons who meet the following selection criteria were selected from the patients who were diagnosed as CKD and receiving a conservation therapy. • Sex is withdrawn from the consideration. Pregnant women and mothers suckling a baby are however excluded. • Age is from 20 to 75 years old. • GFR value is 15 to 59. • Patients where the serum creatinine (sCr) value is within a range of 1.5 to 5.0 mg/dL at the start of the test, the measuring frequencies from 52 weeks before the test until the start of the test are thrice or more and the difference in the tested values in the initial and the final stages is 0.2 mg/dL or more (showing a rise). • Patients where a therapy with a pharmaceutical agent which is thought to suppress the progress of CKD (such as a spherical adsorptive carbon preparation) or a diet therapy is newly started during three month before the start of the test are excluded. • Moreover, patients having a symptom of cerebrovascular disturbance, patients with infectious disease and patients with peptic ulcer are excluded.
After that, the objects were divided into the rapidly-progressive CKD patients and slowly-progressive CKD patients.
As a result, in the new clinical tests, the groups to which the tablets containing the present compound as an active ingredient (test drug) are administered and to which the tablets containing no active ingredient though being undistinguishable from the test drug are divided into six groups in total. Thus, they are three groups for slowly-progressive CKD patients comprising a placebo-administered group, a 800 mg test drug-administered group and a 1600 mg test drug-administered group and other three groups for a rapidly-progressive CKD patients comprising a placebo-administered, a 800 mg test drug-administered group and a 1600 mg test drug-administered group whereby there are six groups in total. The weight mentioned hereinabove is a weight of the present compound contained in the test drug and is a dose for one day. […]

[2] = system: patients with diabetic CRF; settings: cited from earlier work
[3] = system: rats with chronic renal failure; settings: adenine-induced chronic renal failure; cited from earlier work

In the case of `CN1C(=O)NC(=O)C1O` (stereo not shown) [the present compound, 5-hydroxy-1-methylhydantoin], the “progress of worsening of the renal function (inclination of regression line to 1/sCr, before vs after)” value ([1]; 800 mg/day, rapidly-progressive CKD patients (five test subjects), Dunnett test) is reported as “significantly suppressed or improved; also recorded: a downward-sloping inclination becomes somewhat upward rather than moderate”, the “progress of worsening of the renal function (inclination of regression line to 1/sCr, before vs after)” value ([1]; 800 mg/day, slowly-progressive CKD patients) is reported as “No such an effect was achieved” and the “progress of worsening of the renal function (inclination of regression line to 1/sCr, before vs after)” value ([1]; 1600 mg/day, rapidly-progressive CKD patients) is reported as “a certain effect was noted in a rapidly-progressive CKD patient but the effect was not so significant”. For the same compound, the “progress of worsening of the renal function (inclination of regression line to 1/sCr, before vs after)” value ([1]; 1600 mg/day, slowly-progressive CKD patients) was “No effect was noted”, the “side effect / safety” value ([1]; all cases including the 1600 mg/day-administered group, 24 weeks oral) was “almost no side effect is noted; also recorded: no critical side effect becoming a problem is observed” and the “inclination of the regression line of 1/sCr versus time” value (shortened to “inclination … of 1/sCr versus time”) ([2]; 200 mg/day group (n=11), after the administration (24 weeks), mean±S.D., p=0.01, Non-Patent Document 2) was −0.00046±0.00043. For the same compound, the “inclination … of 1/sCr versus time” value ([2]; 200 mg/day group (n=11), before the administration, mean±S.D., Non-Patent Document 2) was −0.00075±0.00066, the “inclination … of 1/sCr versus time” value ([2]; 200 mg/day group (n=12), after the administration, p=0.016, Non-Patent Document 1) was −0.0004±0.00047 and the “inclination … of 1/sCr versus time” value ([2]; 200 mg/day group (n=12), before the administration, Non-Patent Document 1) was −0.00078±0.00064. The “inclination … of 1/sCr versus time” value ([2]; 400 mg/day group (n=11), after the administration (24 weeks), mean±S.D., p=0.02, Non-Patent Document 2) was −0.00066±0.00097, the “inclination … of 1/sCr versus time” value ([2]; 400 mg/day group (n=11), after the administration, p=0.024, Non-Patent Document 1) was −0.00068±0.00096 and the “inclination … of 1/sCr versus time” value ([2]; 400 mg/day group (n=11), before the administration, Non-Patent Document 1) was −0.00098±0.00077. The “inclination … of 1/sCr versus time” value ([2]; 400 mg/day group (n=11), before the administration, mean±S.D., Non-Patent Document 2) was −0.00098±0.00077, the “side effect in the clinical test and in the clinical symptom” value ([2]; 200 or 400 mg/day orally for 24 weeks) was “No critical side effect” and the “accumulation of the pharmaceutical agent” value ([2]; during the course of the clinical test, 200 or 400 mg/day for 24 weeks) was “no accumulation”. The “action on uremic toxin such as urea nitrogen and creatinine” value [3] was “action of lowering the uremic toxin”.
